The text below walks through data of patent publication US7303876B2 (Applera Corporation, priority 2000, dated 2007).

The test system of series [1] is slices of liver. Nature of the series: Maceration of liver slices by reaction compositions at 65° C. The conditions noted are these: 65° C. How it is done:
Initially, a series of reaction compositions were analyzed for their ability to disaggregate a biological sample, e.g., slices of liver. These reaction compositions comprised 100 mM Tris, pH 8.0, 20 mM dithiothreitol (DTT), and optionally,1 mg/ml Proteinase K, surfactants (e.g., cationic, nonionic and anionic detergents), chaotropes, or the additive 1-methyl-2-pyrollidinone (Sigma). Each reaction compositions was placed in a tube with a slice of liver and then incubated at 65° C. The tubes were observed periodically to determine which reaction compositions were able to efficiently macerate the sample.

Series [2] concerns Liver tissue. Put plainly: Liver tissue disaggregation by 1% surfactant with or without Proteinase K at 60° C. On the set-up: Tissue Disaggregation: scale not given here. The conditions noted are these: for Tissue Disaggregation: 60° C., 1% surfactant. On the procedure: To evaluate the ability of various cationic surfactants to increase the digestion of tissue by Proteinase K, liver slices were digested using reaction compositions including one of the sixteen surfactants (shown in Table 4), both with and without Proteinase K. The reducing agent dithiothreitol (DTT) was included to evaluate the effect of reducing conditions on tissue digestion. […] One of the sixteen surfactants was added to one pair of tubes to yield a final concentration of 1% surfactant. The seventeenth pair of tubes served as non-surfactant controls. One milligram (mg) of Proteinase K was added to one tube of each of the seventeen pairs.
PK=presence or absence of Proteinase K in the reaction composition; Y=Proteinase K was present; N=Proteinase K was not present in the reaction composition.

Series [3] has as its system Liver tissue. Nature of the series: Nucleic acid release from liver slices, pH 6, 45° C., 20 minutes, surfactants and additives. The conditions noted are these: with Proteinase K, FIG. 5. On the procedure: The results from Example 6 indicate that there was significant nuclease activity present in the sample. To reduce the nucleolytic activity of endogenous RNAses, the pH of the reaction composition was lowered to approximately 6.0 and the incubation temperature was decreased to 45° C. Several additives, including phenylglyoxal (Aldrich #14243-3), 1-methyl-2-pyrolidinone, RNA Later (Ambion, #7020), and Streck Tissue Fixitive (Streck Laboratories, #265138) were also tested to evaluate their effect on endogenous RNAse activity in these reaction compositions. Phenylglyoxal is known to reduce ribonuclease activity (see Takahashi, The Structure And Funtion Of Ribonuclease T1. XI. Modification Of The Single Arginine Residue In Ribonuclease T1 By Phenylglyoxal And Glyoxal, J. Biochem (Japan) 68:659-664, 1970). The product literature for RNA Later claims that the reagent stabilizes RNA in tissue and Streck Tissue Fixative is believed to preserve the integrity of tissue.
Slices of liver tissue (100-200 mg/sample) were placed into nineteen Eppendorf tubes. Four hundred microliters of a reaction composition comprising 100 mM MES (Sigma #M-5287), pH 6, 20 mM CaCl2, and 1 mg Proteinase K, was added to each tube.
The tubes were incubated at 45° C. for 20 minutes with mixing (Eppendorf Thermomixer, Model 5436). […] Undigested tissue fragments were removed by centrifugation using the methods the same as or similar to those discussed in Example 6. The supernatant was phenol extracted (saturated with 10 mM Tris HCl , pH 8, 1 mM EDTA; Sigma #P-4557), isopropanol precipitated (Aldrich #19076-4), and ethanol washed using methods the same as or similar to those described in Example 6.

The test system of series [4] is Liver tissue. Put plainly: Integrity of nucleic acid released from liver slices with aurintricarboxylic acid, 55° C., 30 minutes. To be noted: 1% surfactant, FIG. 11. How it is done:
Slices of liver tissue (77-186 mg/sample) were placed into twenty-one Eppendorf tubes. To each tube was added 400 μL of a reaction composition comprising 50 mM MES, pH 6.0, 20 mM CaCl2, and additional components as shown in Table 10.
The tubes were incubated at 55° C. with mixing (Eppendorf Thermomixer, Model 5436) for 30 minutes. The resulting surfactant-protease complex was solubilized using methods the same as or similar to those described in Example 7. Undigested tissue fragments were removed by centrifugation using methods the same as or similar to those described in Example 7. The supernatant was phenol extracted, isopropanol precipitated and ethanol washed using methods the same as or similar to those described in Example 6.

Series [5] in a line: Solubility of surfactants (0.5% Sarkosyl, LDS, SDS, CTAB; 5.0% others) in salt solutions. How it is done: In certain instances, the solubility of detergents in high salt may relate to on the composition of the salt and the detergent itself. A mixing experiment was performed to examine the solubility of a variety of anionic, cationic, and nonionic surfactants in different salt compositions. […] The salt solutions contained Lil, Nal, KI, Rbl, Csl , GuSCN, GuHCl, or NaClO4, at pH 6.0 or 10.0. […] The solubility of the surfactants was scored as either soluble or insoluble. The solubility of the surfactant in the salt solution was determined initially by visual observations for cloudiness or precipitate formation. The resulting solutions were also centrifuged to verify the absence of a precipitate by the absence of a precipitate pellet.

For series [6], the system named is Calf thymus genomic DNA. Nature of the series: Reversal by Tween 20 of DTAB inhibition of DNA recovery from GF/B. On the procedure:
Having identified the cationic surfactant as a major component inhibiting DNA recovery, the ability of a nonionic surfactant to reverse the inhibitory effect was examined. Calf thymus genomic DNA (8 μg) was bound to the glass fiber GF/B membrane in the presence of 0%, 1% and 4% dodecyltrimethylammonium bromide (DTAB) with increasing concentrations of Tween 20.
The binding buffer also contained 5M GuSCN, 20 mM EDTA, and 50 mM MES (pH 6.0). DNA was first eluted with 200 μl of TE followed by a separate elution with 100 μl of 0.1N NaOH. All binding and elution steps were done at ambient temperature.

Series [7] has as its system cationic surfactant: nucleic acid precipitate. Put plainly: Solubilizing the cationic surfactant: nucleic acid precipitate (calf thymus DNA + 1% CTAB). To be noted: Calf thymus DNA 700 μg/ml, 100 mM Tris, pH 8, additive at final concentration.
Protocol: Calf thymus DNA (Sigma; 700 μg/ml lightly sheared using an 18 gauge hypodermic needle) was mixed with 1% CTAB in 100 mM Tris, pH 8 to form a reaction composition.
Series [8] deals with Liver tissue. Nature of the series: Nucleic acid release from liver slices, pH 6, 45° C., 30 minutes, surfactants and additives. To be noted: with either 1-methy-2-pyrolidinone or acridine orange. On the procedure:
To compare CTACl to CTAB, those two surfactants were evaluated in parallel along with hexadecyltrimethylammonium bromide (HDTAB), hexadecyltrimethylammonium chloride (HDTACl), and Sarkosyl. Three additives, phenylglyoxal, acridine orange (e.g., Sigma #A6014), and 1-methyl-2-pyrolidinone, were also evaluated. Phenylglyoxal was tested to determine if it would reduce RNAse activity. […] 1-Methyl-2-pyrrolidinone was tested to see if it would enhance solubility of the sample by various reaction compositions.
Slices of liver-tissue (100-200 mg/sample) were placed into twenty-one Eppendorf tubes. Four hundred microliters of a reaction composition, comprising 100 mM MES, pH 6, 20 mM CaCl2, and 1 mg Proteinase K, was added to each tube.
The tubes were incubated at 45° C. for 30 minutes with mixing (Eppendorf Thermomixer, Model 5436). Surfactant: protease complexes were solubilized using methods the same as or similar to those described in Example 7. Remaining tissue fragments were removed by centrifugation using methods the same as or similar to those described in Example 7. The supernatant was phenol extracted, isopropanol precipitated, and ethanol washed using methods the same as or similar to those described in Example 6.

The target in series [9] is T1, Proteinase K (Parengyodontium album, UniProt P06873).
T1 construct: purchased Ambion 2546
Nature of the series: Effect of surfactants on Proteinase K digestion of dye-labeled casein substrate. Type of series: biochemical. The conditions noted are these: 1% surfactant, 60° C., Proteinase K 0.005-20 μg/ml. On the procedure:
To test the effect of cationic surfactants on the activity of Proteinase K, a series of reaction compositions were prepared as follows. Reaction compositions comprised: Casein BoDipy conjugate (1 μg, 10 ng/μL), 10 mM Tris, pH 8, 20 mM CaCl2, 1% surfactant (shown in Table 2 below) and a dilution series of Proteinase K at concentrations of 20 μg/ml, 5 μg/ml, 1.25 μg/ml, 0.31 μg/ml, 0.078 μg/ml, 0.02 μg/ml and 0.005 μg/ml. […] Reaction tubes were incubated at 60° C. in a 96-well optical plate (MicroAmp® Optical 96-Well Reaction Plate, Applied Biosystems) and the amount of released fluorescence was measured at the indicated time points using an ABI Prism 7700.

Where [10] appears, read: Fifteen Minutes Incubation, Proteinase K not present (N).
The mark [11] stands for this setting: Fifteen Minutes Incubation, Proteinase K present (Y).
[12] abbreviates: Fifty-Two Minutes Incubation, Proteinase K not present (N).
The mark [13] stands for this setting: Fifty-Two Minutes Incubation, Proteinase K present (Y).

T1 sequence (P06873 106-384): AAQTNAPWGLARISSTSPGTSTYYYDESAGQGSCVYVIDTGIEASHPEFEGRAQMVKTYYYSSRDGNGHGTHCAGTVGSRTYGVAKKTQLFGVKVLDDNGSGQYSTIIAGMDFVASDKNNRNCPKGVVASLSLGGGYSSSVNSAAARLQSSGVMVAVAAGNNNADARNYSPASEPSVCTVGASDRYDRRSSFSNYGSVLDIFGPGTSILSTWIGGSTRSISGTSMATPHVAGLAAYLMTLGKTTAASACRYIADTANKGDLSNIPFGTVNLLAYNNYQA

In the case of `CCCCCCCCCCCCCCCC[N+](C)(C)C.[Br-]` [CTAB, cetyltrimethylammonium bromide], the “maceration of liver slice” value stood at 100% in [1] (1 mg/ml Proteinase K, 16-24 hr, additive 0.1%); 100% in [1] (1 mg/ml Proteinase K, 16-24 hr, additive 1%); 100% in series [1] (1 mg/ml Proteinase K, 1 hr, additive 0.1%); 100% in series [1] (1 mg/ml Proteinase K, 1 hr, additive 1%). Besides, in [1], the “ability to macerate the liver sample (in words)” value is given as “most effectively macerated the sample”. The “effect on the proteolytic activity of Proteinase K” value in series [1] (liver slices) is on record as “appeared to enhance the proteolytic activity of Proteinase K”. Besides, the “Tissue Disaggregation” value is listed as 0 in series [2] (setting [10]), 4 in series [2] (setting [11]), 0 in series [2] (setting [12]) and 4 in [2] (setting [13]). In addition, the “disaggregation of the tissue sample (in words)” value is “total disaggregation” in series [2] (combination with Proteinase K, 15 and 52 minutes); “no apparent sample disaggregation” in series [2] (surfactant alone, no Proteinase K). The “release of A260 absorbing material from the sample” value (“release of A260 absorbing material” below) in series [3] is “released A260 absorbing material”. Also, the “nucleic acid released, surfactant in reaction composition with aurintricarboxylic acid” value (from here on “nucleic acid released, surfactant”) in [4] is recorded as “released a large amount of high integrity nucleic acid”. For the same compound, the Solubility of surfactant entry in series [5] (pH 6) is given as “S”.
Turning to “polyoxyethylenesorbitan monolaurate [Tween 20]”, the Solubility of surfactant result in series [5] (4 M GuHCl, Urea, pH 6.0) is “S”; in series [5] (4 M GuHCl, Urea, pH 10.0), “S”; in [5] (4 M KI, Urea, pH 6.0) it was “S”; in series [5] (4 M KI, Urea, pH 10.0), “S”; in [5] (6 M GuHCl, pH 6.0), “S”; in series [5] (6 M GuHCl, pH 10.0), “S”. In addition, the Solubility of surfactant entry in series [5] (6 M NaI, pH 10.0) is “S”. For the same compound, the “concentration at which the amount of DNA recovered increased significantly” value in series [6] (0% DTAB, FIG. 21) is “at least 1%”. For the same compound, the “concentration that substantially blocked the inhibitory effect of the cationic surfactant” value is given as “at least 2%” in series [6] (1% DTAB, FIG. 22) and “at least 4%” in series [6] (4% DTAB, FIG. 23). Besides, the “Result (solubilization of the CTAB: nucleic acid precipitate)” value in series [7] is “neither NaCl nor Tween 20, used alone, solubilized the precipitate”.
With `CCCCCCCCCCCCCCCC[N+](C)(C)C.[Cl-]` [CTACl, cetyltrimethylammonium chloride], in series [3], the “release of A260 absorbing material” value is given as “released A260 absorbing material”. Besides, the “high molecular weight nucleic acid by gel electrophoresis” value in series [8] was “High molecular weight nucleic acid was also present”. Moreover, in series [4], the “nucleic acid released, surfactant” value is on record as “released a large amount of high integrity nucleic acid”.
`CCCCCCCCCCCCOS(=O)(=O)[O-].[Na+]` [SDS, sodium dodecyl sulfate]: the “maceration of liver slice” value is 50% in series [1] (1 mg/ml Proteinase K, 2-5 hr, additive 1%) and 0% in [1] (No Proteinase K, 2-5 hr, additive 1%). In addition, the “effect on Proteinase K activity on the casein substrate” value in series [9] is reported as “enhances the activity of Proteinase K”. The “Tissue Disaggregation” value in [2] (setting [10]) is recorded as 0; in [2] (setting [11]), 3; in series [2] (setting [12]), 0; in series [2] (setting [13]), 3. For the same compound, the “release of A260 absorbing material” value in series [3] is “released A260 absorbing material”. Further, the “nucleic acid released, surfactant” value in series [4] is reported as “less nucleic acid was released”.
